Experimental data as given in article PMC3849221 (NeuroImage, 2013).
Several values for one entry are separate records, joined by “and”; a condition that tells them apart may be missing. Equal entries are not always repeated. Entries after “also recorded” stand apart in the source; their conditions may differ.

Columns and labels:
Lipophilicity LogD7.4 = type: physicochemical; conditions: n-octanol / 0.15 M sodium phosphate buffer pH 7.4, room temperature, 6 measurements
CB1 receptor = CB1 receptor (Homo sapiens, UniProt P21554); experiment: Human brain PET with 11C-SD5024, compartmental modeling; type: in vivo; conditions: for VT / K1 / k2 / vB (%): one-tissue compartment model, mean±SD; for VT: 120 min; for K1 / k2 / vB (%): seven subjects; for Intersubject Variability of VT (SD/mean): n=7, 120min
[1] = Measurement of 11C-SD5024 in human arterial plasma; type: in vivo
[2] = Pharmacological effects of injected 11C-SD5024 in healthy subjects; type: in vivo; conditions: human, injected mass dose 242±47 pmol/kg, n=7
CB1 receptors = CB1 receptors (Macaca mulatta, UniProt Q71SP5); experiment: Monkey brain PET with 11C-SD5024, baseline and rimonabant pre-blocked scans; conditions: for VT Baseline: one value per monkey; for VT Preblocked: rimonabant 3 mg/kg i.v.
[3] = monkey striatum, calculated from caudate and putamen (Table 2)

CB1 receptor, sequence (P21554 whole entry): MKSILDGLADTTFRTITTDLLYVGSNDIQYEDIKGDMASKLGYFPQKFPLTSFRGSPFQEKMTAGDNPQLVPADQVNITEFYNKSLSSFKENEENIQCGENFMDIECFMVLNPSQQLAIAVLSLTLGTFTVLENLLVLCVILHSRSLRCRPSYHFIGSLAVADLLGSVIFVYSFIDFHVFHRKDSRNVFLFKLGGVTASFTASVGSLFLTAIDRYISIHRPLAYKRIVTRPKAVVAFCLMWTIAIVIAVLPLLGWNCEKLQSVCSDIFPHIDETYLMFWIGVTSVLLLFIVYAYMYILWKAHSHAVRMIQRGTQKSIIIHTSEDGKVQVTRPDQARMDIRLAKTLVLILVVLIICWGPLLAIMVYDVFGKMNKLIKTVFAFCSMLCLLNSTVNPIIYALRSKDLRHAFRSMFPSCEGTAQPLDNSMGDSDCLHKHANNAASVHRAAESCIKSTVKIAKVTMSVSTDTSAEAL
CB1 receptors, sequence (Q71SP5 whole entry): as the sequence (P21554 whole entry) above

N#[11C]c1ccc(S(=O)(=O)NC(=N)N2CC(c3ccccc3)C(c3ccc(Cl)cc3)=N2)cc1 (stereo not drawn) [^11C-SD5024, [cyano-^11C](−)-3-(4-chlorophenyl)-N-[(4-cyanophenyl)sulfonyl]-4-phenyl-4,5-dihydro-1H-pyrazole-1-carboxamidine]
LogD7.4 (Lipophilicity LogD7.4): 3.79±0.09 | decrease of brain radioactivity from peak time (40 min) to end of scan (120 min) (CB1 receptor): 20% | time of peak brain activity (CB1 receptor): ~ 40 min | VT (CB1 receptor; Caudate, n=7): 2.31±0.55 mL·cm^−3 | K1 (CB1 receptor; Caudate): 0.028±0.005 mL/cm^3/min | k2 (CB1 receptor; Caudate): 0.013 ± 0.003 min⁻¹ | vB (%) (CB1 receptor; Caudate): 3.7±0.67% | VT (CB1 receptor; Cerebellum, n=7): 1.93±0.38 mL·cm^−3 | K1 (CB1 receptor; Cerebellum): 0.030±0.006 mL/cm^3/min | k2 (CB1 receptor; Cerebellum): 0.016 ± 0.003 min⁻¹ | vB (%) (CB1 receptor; Cerebellum): 6.4±0.69% | VT (CB1 receptor; Cingulate, n=7): 2.79±0.58 mL·cm^−3 | K1 (CB1 receptor; Cingulate): 0.029±0.006 mL/cm^3/min | k2 (CB1 receptor; Cingulate): 0.011 ± 0.002 min⁻¹ | vB (%) (CB1 receptor; Cingulate): 5.0±0.58% | Intersubject Variability of VT (SD/mean) (CB1 receptor; Frontal): 21% | VT (CB1 receptor; Frontal, n=7): 2.57±0.54 mL·cm^−3 | K1 (CB1 receptor; Frontal): 0.032±0.006 mL/cm^3/min | k2 (CB1 receptor; Frontal): 0.013 ± 0.003 min⁻¹ | vB (%) (CB1 receptor; Frontal): 4.4±0.66% | VT (CB1 receptor; Lateral temporal, n=7): 2.66±0.57 mL·cm^−3 | K1 (CB1 receptor; Lateral temporal): 0.032±0.007 mL/cm^3/min | k2 (CB1 receptor; Lateral temporal): 0.012 ± 0.002 min⁻¹ | vB (%) (CB1 receptor; Lateral temporal): 5.2±0.64% | VT (CB1 receptor; Medial temporal, n=7): 2.48±0.65 mL·cm^−3 | K1 (CB1 receptor; Medial temporal): 0.023±0.005 mL/cm^3/min | k2 (CB1 receptor; Medial temporal): 0.010 ± 0.002 min⁻¹ | vB (%) (CB1 receptor; Medial temporal): 5.3±0.58% | VT (CB1 receptor; Occipital, n=7): 2.00±0.38 mL·cm^−3 | K1 (CB1 receptor; Occipital): 0.035±0.007 mL/cm^3/min | k2 (CB1 receptor; Occipital): 0.018 ± 0.003 min⁻¹ | vB (%) (CB1 receptor; Occipital): 5.9±0.49% | VT (CB1 receptor; Parietal, n=7): 2.44±0.50 mL·cm^−3 | K1 (CB1 receptor; Parietal): 0.034±0.006 mL/cm^3/min | k2 (CB1 receptor; Parietal): 0.014 ± 0.003 min⁻¹ | vB (%) (CB1 receptor; Parietal): 4.8±0.50% | Intersubject Variability of VT (SD/mean) (CB1 receptor; Putamen): 22% | VT (CB1 receptor; Putamen, n=7): 3.16±0.70 mL·cm^−3 | K1 (CB1 receptor; Putamen): 0.038±0.008 mL/cm^3/min | k2 (CB1 receptor; Putamen): 0.012 ± 0.003 min⁻¹ | vB (%) (CB1 receptor; Putamen): 4.0±0.79% | peak brain uptake of 11C-SD5024 higher than that of 11C-OMAR by (CB1 receptor; Table 5): about 40% | peak brain uptake of 11C-SD5024 lower than that of 11C-MePPEP by (CB1 receptor; Table 5): about 20% | peak brain uptake of 11C-SD5024 relative to 11C-OMAR (CB1 receptor; Table 5): ~ 1.4 times | VT of 11C-SD5024 relative to 11C-OMAR (CB1 receptor; Table 6): about twice higher; also recorded: about two-fold greater; also recorded: about twice greater | Intersubject Variability of VT (SD/mean) (CB1 receptor; Thalamus): 24% | VT (CB1 receptor; Thalamus, n=7): 1.71±0.41 mL·cm^−3 | K1 (CB1 receptor; Thalamus): 0.029±0.006 mL/cm^3/min | k2 (CB1 receptor; Thalamus): 0.017 ± 0.004 min⁻¹ | vB (%) (CB1 receptor; Thalamus): 4.6±0.49% | accumulation of radiometabolites in brain (CB1 receptor; from time stability of VT): do not significantly accumulate in brain | intersubject variability for VT (Table 6) (CB1 receptor; n=7): ~ 24% | intersubject variability of VT, average value (CB1 receptor; n=7): 22% | average SE of VT across brain regions (identifiability) (CB1 receptor; one-compartment model): 1.8% | scan duration adequate to measure VT / CB1 receptors (CB1 receptor; truncation of the 120-min scan): 80 min | free fraction in plasma (fP) [1]: too low to measure accurately | time of peak concentration in arterial plasma [1]: 75 s | peak concentration in arterial plasma ([1]; after i.v. injection): 24±8 SUV | fraction of parent as percentage of total plasma radioactivity ([1]; at 75 min): 51±13% | plasma concentrations of 11C-SD5024 relative to 11C-MePPEP ([1]; from 30 to 120 min): five-times | pharmacological effects (subjective reports, vital signs, laboratory tests) [2]: no pharmacological effects | specific binding as proportion of VT (CB1 receptors; monkey brain, baseline vs receptor blockade with rimonabant 3 mg/kg i.v.): ~ 80% | Specific binding (%) (CB1 receptors; monkey striatum, (VT baseline – VT preblock)/VT baseline): 82% | VT (striatum) Baseline (CB1 receptors; [3]): 2.36 mL·cm^−3 | VT (striatum) Preblocked (CB1 receptors; [3]): 0.44 mL·cm^−3 | Specific binding (%) (CB1 receptors; monkey, Caudate, (VT baseline – VT preblocked)/VT baseline): 82% and 79% | VT Baseline (CB1 receptors; monkey, Caudate): 1.62 mL · cm^−3 and 2.79 mL · cm^−3 | VT Preblocked (CB1 receptors; monkey, Caudate): 0.30 mL · cm^−3 and 0.60 mL · cm^−3 | Specific binding (%) (CB1 receptors; monkey, Cerebellum, (VT baseline – VT preblocked)/VT baseline): 79% and 78% | VT Baseline (CB1 receptors; monkey, Cerebellum): 1.27 mL · cm^−3 and 2.34 mL · cm^−3 | VT Preblocked (CB1 receptors; monkey, Cerebellum): 0.27 mL · cm^−3 and 0.51 mL · cm^−3 | Specific binding (%) (CB1 receptors; monkey, Cingulate, (VT baseline – VT preblocked)/VT baseline): 84% and 82% | VT Baseline (CB1 receptors; monkey, Cingulate): 1.74 mL · cm^−3 and 3.58 mL · cm^−3 | Specific binding (%) (CB1 receptors; monkey, Frontal Ctx, (VT baseline – VT preblocked)/VT baseline): 79% and 72% | VT Baseline (CB1 receptors; monkey, Frontal Ctx): 1.77 mL · cm^−3 and 3.13 mL · cm^−3 | Specific binding (%) (CB1 receptors; monkey, Lateral Temporal Ctx, (VT baseline – VT preblocked)/VT baseline): 81% and 77% | VT Baseline (CB1 receptors; monkey, Lateral Temporal Ctx): 1.32 mL · cm^−3 and 2.52 mL · cm^−3 | Specific binding (%) (CB1 receptors; monkey, Medial Temporal Ctx, (VT baseline – VT preblocked)/VT baseline): 71% | VT Baseline (CB1 receptors; monkey, Medial Temporal Ctx): 1.33 mL · cm^−3 and 2.54 mL · cm^−3 | VT Preblocked (CB1 receptors; monkey, Medial Temporal Ctx): 0.39 mL · cm^−3 and 0.75 mL · cm^−3 | Specific binding (%) (CB1 receptors; monkey, Occipital Ctx, (VT baseline – VT preblocked)/VT baseline): 78% and 71% | VT Baseline (CB1 receptors; monkey, Occipital Ctx): 1.07 mL · cm^−3 and 2.00 mL · cm^−3 | Specific binding (%) (CB1 receptors; monkey, Parietal Ctx, (VT baseline – VT preblocked)/VT baseline): 81% and 74% | VT Baseline (CB1 receptors; monkey, Parietal Ctx): 1.39 mL · cm^−3 and 2.70 mL · cm^−3 | Specific binding (%) (CB1 receptors; monkey, Putamen, (VT baseline – VT preblocked)/VT baseline): 83% and 81% | VT Baseline (CB1 receptors; monkey, Putamen): 1.84 mL · cm^−3 and 3.04 mL · cm^−3 | VT Preblocked (CB1 receptors; monkey, Putamen): 0.31 mL · cm^−3 and 0.56 mL · cm^−3 | Specific binding (%) (CB1 receptors; monkey, Thalamus, (VT baseline – VT preblocked)/VT baseline): 64% and 68% | VT Baseline (CB1 receptors; monkey, Thalamus): 0.83 mL · cm^−3 and 1.85 mL · cm^−3 | VT Preblocked (CB1 receptors; monkey, Thalamus): 0.30 mL · cm^−3 and 0.59 mL · cm^−3 | time of peak brain activity (CB1 receptors; monkey, baseline): ~ 60 min | brain activity (peak) (CB1 receptors; monkey, baseline, after i.v. injection): ~ 2 SUV | average SE of VT across brain regions (identifiability) (CB1 receptors; monkey, one-compartment model): 3.8%
